Measurements as given in US12473377B2, “Antibody-ALK5 inhibitor conjugates and their uses” (Synthis Therapeutics, Inc., priority 2016, dated 2025).
Where two headings read alike, the source gives them in different places.

Experiments:
[1] = tested on: primary mouse CD4^+ T cells; test: MTS proliferation assay; type: cell-based; settings: for IC50: Mus musculus, CD4+ T; for reversal of TGFβ-mediated inhibition of T cell proliferation (in words): mouse CD4^+ T cells, 1 nM TGF-β1
Experimental: Compounds A-D were tested to determine whether they could inhibit TGF-β signaling in primary mouse CD4^+ T cells.
Primary mouse CD4^+ T cells were isolated from the spleens of C57/B6 mice using the RoboSep™ cell isolation system (Stemcell Technologies). 0.5 μg/ml of hamster anti-mouse CD3e antibody (145-2C11; eBioscience) was coated onto a 96 well flat bottom plate overnight. 1×10^5 purified CD4^+ T cells were incubated with 1 μg/ml soluble hamster anti-mouse CD28 antibody (37.51, BD Biosciences), 1 nM TGF-β1 and 8-fold serial dilutions of Compounds A-D. After 72 hours, cell proliferation was measured using an MTS assay (Promega) in accordance with the manufacturer's instructions.

[2] = tested on: TGF-β-induced luciferase activity in HEK293T cells; test: TGF-β-induced SMAD luciferase reporter assay in HEK293T cells; type: cell-based; settings: Homo sapiens, HEK-293T, 24 hours
Experimental: Compounds A-D were tested to determine whether they could inhibit TGF-β-induced luciferase activity in HEK293T cells in vitro.
30,000 HEK293T cells were seeded in a 96 well white flat bottom plate overnight. The next day 100 ng of a SMAD luciferase reporter plasmid per well was transfected into the cells using lipofectamine for 24 hours. The next day cells were treated with Compounds A-D and […] TGFβ for 24 hours. Luciferase activity was measured using the Dual-Glo® luciferase assay kit (Promega). The assay was run twice for Compounds A, B, and D, and three times for Compound C.

[3] = tested on: Naïve CD4 T cells (iTreg FoxP3 expression); test: iTreg conversion assay; type: cell-based, mouse
Experimental: Naïve CD4 T cells were isolated from isolated mouse spleenocytes using a negative selection kit. The cell density was adjusted to 0.4×10^6 cells/ml, and 10 ng/ml of mouse IL-2, 20 ng/ml of TGF-β, and 1 μg/ml of soluble anti-CD28 was added to the cell suspension.
Anti-mouse CD3 antibody at 10 μg/ml was coated on a 24 well plate and incubated at 4° C. overnight. The antibody was then aspirated from the plate. 1 ml of the cell suspension was added to each well of the 24 well plate. ADC1 (DAR 4-6) at 3 μg/ml and 5 μg/ml, anti-transferrin receptor antibody, rat anti-mouse IgG2A isotype control ALK5 ADC, and ALK5 inhibitor Compound C at 100 nM and 1 μM were added to separate wells of the 24 well plate. The cells were then cultured for 72 hours. TfR expression was tested at 48 hours (data not shown). Cells were stained for FoxP3 (eBioscience FoxP3 staining buffer) and sorted by FACS at 72 hours.

[4] = tested on: GzmB expression in primary CD8^+ T cells; test: Granzyme B expression assay; type: cell-based, mouse; settings: 1 nM TGF-β, ADC1 at DARs 2-4, 4-6 and 6-8, flow cytometry
Experimental: Mouse CD3^+ T cells were purified from mouse spleens using the EasySep™ Mouse T cell isolation kit (negative selection) (Stemcell Technologies). CD3^+ T cells were activated as before using plate bound antiCD3e and soluble anti-CD28 for 48 hours. T cells were washed and re-plated in media with 5% serum plus 1 nM TGF-β−/+ADC.
Golgi stop reagent was added for the last 4 hours and then the cells were immunostained for surface CD8 (BD) and intracellular GzmB (eBioscience) and analyzed via flow cytometry. Granzyme B (GzmB) is a serine protease released by CD8^+ T cells to kill tumor cells. Thus, increased expression of GzmB is indicative of CD8^+ cytotoxic T cell activation.

Mouse CTLL2 cells = test: CTLL2 proliferation assay (BrdU ELISA); type: cell-based
Experimental: Mouse CTLL2 cells were cultured at 1×10^5 cells/well in 0.2 ng/ml IL2. To each well as indicated 1 nM TGF-β, 1 μg/ml ADC, and/or 100 nM ALK5 inhibitor Compound C was added to the wells for 24 hours. Proliferation was quantitated via addition of the BrdU reagent (Abcam) to each well for another 12 hours and then analyzed by ELISA.

[5] = Experiment 1, anti-CD3e/anti-CD28, 1 nM TGF-β1, 72 hours
[6] = Experiment 2, anti-CD3e/anti-CD28, 1 nM TGF-β1, 72 hours, read-out: Experiment 2 IC50
[7] = Experiment 1, 100 μM TGFβ, read-out: Experiment 1 IC50
[8] = Experiment 2, 100 μM TGFβ, read-out: Experiment 2 IC50
[9] = Experiment 1, anti-CD3e/anti-CD28, 1 nM TGF-β1, 72 hours, read-out: Experiment 1 IC50

Compound | Experiment 1 IC50 [1, 5] | IC50 [1, 6] [µM] | reversal of TGFβ-mediated inhibition of T cell proliferation (in words) [1] | IC50 [2, 7] [µM] | IC50 [2, 8] [µM] | IC50 [1, 9] [µM] | amount of iTreg generated ([3]; 100 nM free ALK5 inhibitor, 20 ng/ml TGF-β, 72 hours) | iTreg generation ([3]; 100 nM of free ALK5 inhibitor (FIG. 12 legend)) | restoration of GzmB expression ([4]; listed as ALK5 compound) | restoration of GzmB expression ([4]; listed as free ALK5 inhibitor) | restoration of CTLL2 proliferation in presence of TGF-β (Mouse CTLL2 cells; 100 nM ALK5 inhibitor Compound C, 1 nM TGF-β, 24 hours) | IC50 ([2]; Experiment 3, 100 μM TGFβ, read-out: Experiment 3 IC50) [µM] | Experiment 2 IC50 ([1]; Experiment 2, anti-CD3e/anti-CD28, 1 nM TGF-β1, 72 hours) | inhibition of CTLL2 proliferation (Mouse CTLL2 cells; 1 nM TGF-β alone)
Cc1cccc(-c2nc(N)sc2-c2ccc3ncccc3n2)n1 [Compound A, 4-(6-methylpyridin-2-yl)-5-(1,5-naphthyridin-2-yl)thiazol-2-amine] | Value not obtained | 0.153 | did not show consistent effects | 0.0187 | 0.0298 | – | – | – | – | – | – | – | – | –
CNCCOc1ccc(-c2cc(-c3c[nH]nc3-c3ccccn3)ccn2)cc1 [Compound B, N-methyl-2-(4-(4-(3-(pyridin-2-yl)-1H-pyrazol-4-yl)pyridin-2-yl)phenoxy)ethan-1-amine] | – | 0.034 | reversed TGFβ-mediated inhibition of T cell proliferation | 0.0518 | 0.0113 | 0.06 | – | – | – | – | – | – | – | –
CNCCOc1ccc(-c2cc(-c3c[nH]nc3-c3cccc(C)n3)ccn2)cc1 [Compound C, N-methyl-2-(4-(4-(3-(6-methylpyridin-2-yl)-1H-pyrazol-4-yl)pyridin-2-yl)phenoxy)ethan-1-amine] | – | 0.033 | reversed TGFβ-mediated inhibition of T cell proliferation | 0.0101 | 0.0212 | 0.02 | modestly decreased the amount of iTreg generated | decreases iTreg generation | restore GzmB expression | partially restores Granzyme B expression | almost complete reversal of TGF-β inhibition and restoration of CTLL2 proliferation | 0.0132 | – | –
CCNC(=O)c1ccc2c(c1)NC(=O)/C2=C(\Nc1ccc(N(CCNC)S(C)(=O)=O)cc1)c1ccccc1 [Compound D, (Z)-N-ethyl-3-(((4-(N-(2-(methylamino)ethyl)methylsulfonamido)phenyl)amino)(phenyl)methylene)-2-oxoindoline-6-carboxamide] | Value not obtained | – | an IC50 value was not obtained | 1.07 | 1.52 | – | – | – | – | – | – | – | Value not obtained | –
TGF-β | – | – | – | – | – | – | – | – | – | – | – | – | – | approximately 60%
